In data set [1] the test system is caspases 3 and 9 in SH-SY5Y cells. The experiment in a line: Western blotting of cleaved caspase 3 and 9. Format: cell-based, human. The settings on record: 2000 µM, 6 h, both differentiated and undifferentiated SH-SY5Y cells. Here is the method: Amiodarone 50 μM and MDMA 1000 μM were used as negative controls. After treatment, cells were washed twice with cold PBS buffer (pH 7.4) and incubated with 70 μL of cell lysis buffer (radioimmunoprecipitation assay (RIPA) buffer supplemented with complete protease inhibitor (Roche Diagnostics, Mannheim, Germany)) for 15 min on ice. Then, the cell lysates were collected into Eppendorf tubes and centrifuged at 1600 g for 20 min. […] The protein extracts (18 μg per lane) were loaded, separated by SDS/PAGE using 4–12% NuPAGE Bis-Tris gels (Invitrogen, Basel, Switzerland), and then transferred to nitrocellulose membranes by the Trans-Blot Turbo Blotting System (Bio-Rad, Cressier, Switzerland). […] Protein expression was quantified using the Fusion Pulse TS device (Vilber Lourmat, Oberschwaben, Germany).
Background: A western blot detects proteins with antibodies after separation by electrophoresis.

Data set [2] concerns SH-SY5Y cells. Also on record: method as in PMID 32295288. The settings on record: cited from earlier work.
The test system of data set [3] is mitochondria obtained from the hippocampus, cortex, and cerebellum of rats. The settings on record: cited from earlier work.
Data set [4] concerns C2C12 cells. Also on record: method as in PMID 30925718. The settings on record: C2C12 mouse skeletal muscle cell line; cited from earlier work.
For data set [5] the following is noted: cited from earlier work.

`CNC(C)C(=O)c1ccc(Cl)cc1` (stereo not shown) [4-CMC, 4-chloromethcathinone]: the “Expression of cleaved caspase 9” value in data set [1] was “increased the expression of cleaved caspase 9”. The Effect on autophagy entry in data set [2] is reported as “stimulates autophagy”.

Turning to `CNC(C)C(=O)c1ccc(C)cc1` (stereo not shown) [4-MMC, 4-methylmethcathinone], the “Effect on mitochondrial ROS levels and outer mitochondrial membrane” value in data set [3] was “increases mitochondrial ROS levels and damages the outer mitochondrial membrane”.

In the case of `CNC(C)Cc1ccc2c(c1)OCO2` (stereo not shown) [MDMA, 3,4-methylenedioxymethamphetamine], in data set [4], the “Electron transport chain complexes with reduced activity” value was “reduced the activity of complexes I and III”.

With `CC(N)Cc1ccccc1` (stereo not shown) [amphetamine, Amphetamine], the “Plasma concentrations reached after a pharmacological dose” value in data set [5] was “low micromolar range”.

In the case of `CCCC(C(=O)c1ccc2ccccc2c1)N1CCCC1` (stereo not shown) [naphyrone], in data set [4], the “Electron transport chain complexes with reduced activity” value is given as “complex II”.

For the compound `CCCC(C(=O)c1ccccc1)N1CCCC1` (stereo not drawn) [α-PVP, α-pyrrolidinopentiophenone], the “Electron transport chain complexes with reduced activity” value in data set [4] was “complex I”.

Values taken from paper PMC7215714.
